Tested on: MV4-11 cells
Assay: MV4-11 Cytotoxicity Assay
Format: cell-based, human
Conditions: Homo sapiens, MV4-11; 72 hr, CCK-8; read-out: MV4-11 cytotoxicity

Row | SMILES | IC50 [nM]
1 | Cc1sc2c(c1C)C(c1ccc(Cl)cc1)=N[C@@H](CC(=O)NCc1ccc(CN3CCC(Cc4ccc(-n5c(O)nnc5-c5cc(C(C)C)c(O)cc5O)cc4)CC3)cc1)c1nnc(C)n1-2 [Compound 89, (S)-2-(4-(4-chlorophenyl)-2,3,9-trimethyl-6H-thieno[3,2-f][1,2,4]triazolo[4,3-a][1,4]diazepin-6-yl)-N-(4-((4-(4-(3-(2,4-dihydroxy-5-isopropylphenyl)-5-hydroxy-4H-1,2,4-triazol-4-yl)benzyl)piperidin-1-yl)methyl)benzyl)acetamide, trifluoroacetic acid] | < 100
2 | CCNC(=O)c1nnc(-c2cc(C(C)C)c(O)cc2O)n1-c1ccc(CC2CCN(CC3CCN(C(=O)C[C@@H]4N=C(c5ccc(Cl)cc5)c5c(sc(C)c5C)-n5c(C)nnc54)CC3)CC2)cc1 [Compound 90, (S)-4-(4-((1-((1-(2-(4-(4-chlorophenyl)-2,3,9-trimethyl-6H-thieno[3,2-f][1,2,4]triazolo[4,3-a][1,4]diazepin-6-yl)acetyl)piperidin-4-yl)methyl)piperidin-4-yl)methyl)phenyl)-5-(2,4-dihydroxy-5-isopropylphenyl)-N-ethyl-4H-1,2,4-triazole-3-carboxamide] | < 100
3 | CCc1cc(-c2nnc(C(=O)NCC(F)(F)F)n2-c2ccc(CC3CCN(Cc4ccc(CNC(=O)C[C@@H]5N=C(c6ccc(Cl)cc6)c6c(sc(C)c6C)-n6c(C)nnc65)cc4)CC3)cc2)c(O)cc1O [Compound 91, (S)-4-(4-((1-(4-((2-(4-(4-chlorophenyl)-2,3,9-trimethyl-6H-thieno[3,2-f][1,2,4]triazolo[4,3-a][1,4]diazepin-6-yl)acetamido)methyl)benzyl)piperidin-4-yl)methyl)phenyl)-5-(5-ethyl-2,4-dihydroxyphenyl)-N-(2,2,2-trifluoroethyl)-4H-1,2,4-triazole-3-carboxamide, trifluoroacetic acid] | < 100
4 | Cc1sc2c(c1C)C(c1ccc(Cl)cc1)=N[C@@H](CC(=O)N(C)[C@H](C)c1ccc(CN3CCN(Cc4ccc(-n5c(O)nnc5-c5cc(C(C)C)c(O)cc5O)cc4)CC3)cc1)c1nnc(C)n1-2 [Compound 92, 2-((S)-4-(4-chlorophenyl)-2,3,9-trimethyl-6H-thieno[3,2-f][1,2,4]triazolo[4,3-a][1,4]diazepin-6-yl)-N—((R)-1-(4-((4-(4-(3-(2,4-dihydroxy-5-isopropylphenyl)-5-hydroxy-4H-1,2,4-triazol-4-yl)benzyl)piperazin-1-yl)methyl)phenyl)ethyl)-N-methylacetamide, trifluoroacetic acid] | 100 to 1000
5 | Cc1sc2c(c1C)C(c1ccc(Cl)cc1)=N[C@@H](CC(=O)N(C)[C@H](C)c1ccc(CN3CCC(Cc4ccc(-n5c(O)nnc5-c5cc(C(C)C)c(O)cc5O)cc4)CC3)cc1)c1nnc(C)n1-2 [Compound 93, 2-((S)-4-(4-chlorophenyl)-2,3,9-trimethyl-6H-thieno[3,2-f][1,2,4]triazolo[4,3-a][1,4]diazepin-6-yl)-N—((R)-1-(4-((4-(4-(3-(2,4-dihydroxy-5-isopropylphenyl)-5-hydroxy-4H-1,2,4-triazol-4-yl)benzyl)piperidin-1-yl)methyl)phenyl)ethyl)-N-methylacetamide, trifluoroacetic acid] | < 100
6 | Cc1sc2c(c1C)C(c1ccc(Cl)cc1)=N[C@@H](CC(=O)N1CCC(CN3CCC(Cc4ccc(-n5c(O)nnc5-c5cc(C(C)C)c(O)cc5O)cc4)CC3)CC1)c1nnc(C)n1-2 [Compound 94, (S)-2-(4-(4-chlorophenyl)-2,3,9-trimethyl-6H-thieno[3,2-f][1,2,4]triazolo[4,3-a][1,4]diazepin-6-yl)-1-(4-((4-(4-(3-(2,4-dihydroxy-5-isopropylphenyl)-5-hydroxy-4H-1,2,4-triazol-4-yl)benzyl)piperidin-1-yl)methyl)piperidin-1-yl)ethan-1-one, trifluoroacetic acid] | < 100
7 | Cc1sc2c(c1C)C(c1ccc(Cl)cc1)=N[C@@H](CC(=O)NCCc1ccc(CN3CCC(Cc4ccc(-n5c(C(=O)NCC(F)(F)F)nnc5-c5cc(C(C)C)c(O)cc5O)cc4)CC3)cc1)c1nnc(C)n1-2 [Compound 95, (S)-4-(4-((1-(4-(2-(2-(4-(4-chlorophenyl)-2,3,9-trimethyl-6H-thieno[3,2-f][1,2,4]triazolo[4,3-a][1,4]diazepin-6-yl)acetamido)ethyl)benzyl)piperidin-4-yl)methyl)phenyl)-5-(2,4-dihydroxy-5-isopropylphenyl)-N-(2,2,2-trifluoroethyl)-4H-1,2,4-triazole-3-carboxamide, trifluoroacetic acid] | < 100
8 | Cc1sc2c(c1C)C(c1ccc(Cl)cc1)=N[C@@H](CC(=O)NCc1ccc(CN3CCC(Cc4ccc(-n5c(C(=O)NCC(F)(F)F)nnc5-c5cc(C(C)C)c(O)cc5O)cc4)CC3)cc1)c1nnc(C)n1-2 [Compound 96, (S)-4-(4-((1-(4-((2-(4-(4-chlorophenyl)-2,3,9-trimethyl-6H-thieno[3,2-f][1,2,4]triazolo[4,3-a][1,4]diazepin-6-yl)acetamido)methyl)benzyl)piperidin-4-yl)methyl)phenyl)-5-(2,4-dihydroxy-5-isopropylphenyl)-N-(2,2,2-trifluoroethyl)-4H-1,2,4-triazole-3-carboxamide, trifluoroacetic acid] | < 100
9 | Cc1sc2c(c1C)C(c1ccc(Cl)cc1)=N[C@@H](CC(=O)N[C@H](C)c1cccc(CN3CCC(Cc4ccc(-n5c(C(=O)NCC(F)(F)F)nnc5-c5cc(C(C)C)c(O)cc5O)cc4)CC3)c1)c1nnc(C)n1-2 [Compound 97, 4-(4-((1-(3-((R)-1-(2-((S)-4-(4-chlorophenyl)-2,3,9-trimethyl-6H-thieno[3,2-f][1,2,4]triazolo[4,3-a][1,4]diazepin-6-yl)acetamido)ethyl)benzyl)piperidin-4-yl)methyl)phenyl)-5-(2,4-dihydroxy-5-isopropylphenyl)-N-(2,2,2-trifluoroethyl)-4H-1,2,4-triazole-3-carboxamide, trifluoroacetic acid] | < 100
10 | Cc1sc2c(c1C)C(c1ccc(Cl)cc1)=N[C@@H](CC(=O)NCCc1ccc(CN3CCC(Cc4ccc(-n5c(O)nnc5-c5cc(C(C)C)c(O)cc5O)cc4)CC3)cc1)c1nnc(C)n1-2 [Compound 98, (S)-2-(4-(4-chlorophenyl)-2,3,9-trimethyl-6H-thieno[3,2-f][1,2,4]triazolo[4,3-a][1,4]diazepin-6-yl)-N-(4-((4-(4-(3-(2,4-dihydroxy-5-isopropylphenyl)-5-hydroxy-4H-1,2,4-triazol-4-yl)benzyl)piperidin-1-yl)methyl)phenethyl)acetamide, trifluoroacetic acid] | < 100
11 | Cc1sc2c(c1C)C(c1ccc(Cl)cc1)=N[C@@H](CC(=O)N(C)CCOc1ccc(CN(C)Cc3ccc(-n4c(O)nnc4-c4cc(C(C)C)c(O)cc4O)cc3)cc1)c1nnc(C)n1-2 [Compound 99, (S)-2-(4-(4-chlorophenyl)-2,3,9-trimethyl-6H-thieno[3,2-f][1,2,4]triazolo[4,3-a][1,4]diazepin-6-yl)-N-(2-(4-(((4-(3-(2,4-dihydroxy-5-isopropylphenyl)-5-hydroxy-4H-1,2,4-triazol-4-yl)benzyl)(methyl)amino)methyl)phenoxy)ethyl)-N-methylacetamide, formic acid] | < 100
12 | CCN(Cc1ccc(OCCCNC(=O)C[C@@H]2N=C(c3ccc(Cl)cc3)c3c(sc(C)c3C)-n3c(C)nnc32)cc1)Cc1ccc(-n2c(O)nnc2-c2cc(C(C)C)c(O)cc2O)cc1 [Compound 100, (S)-2-(4-(4-chlorophenyl)-2,3,9-trimethyl-6H-thieno[3,2-f][1,2,4]triazolo[4,3-a][1,4]diazepin-6-yl)-N-(3-(4-(((4-(3-(2,4-dihydroxy-5-isopropylphenyl)-5-hydroxy-4H-1,2,4-triazol-4-yl)benzyl)(ethyl)amino)methyl)phenoxy)propyl)acetamide, formic acid] | < 100
13 | Cc1sc2c(c1C)C(c1ccc(Cl)cc1)=N[C@@H](CC(=O)N(C)CCOc1ccc(CN(C)Cc3ccc(-n4c(C(=O)NCC(F)(F)F)nnc4-c4cc(C(C)C)c(O)cc4O)cc3)cc1)c1nnc(C)n1-2 [Compound 101, (S)-4-(4-(((4-(2-(2-(4-(4-chlorophenyl)-2,3,9-trimethyl-6H-thieno[3,2-f][1,2,4]triazolo[4,3-a][1,4]diazepin-6-yl)-N-methylacetamido)ethoxy)benzyl)(methyl)amino)methyl)phenyl)-5-(2,4-dihydroxy-5-isopropylphenyl)-N-(2,2,2-trifluoroethyl)-4H-1,2,4-triazole-3-carboxamide, formic acid] | < 100
14 | CCN(Cc1ccc(OCCCNC(=O)C[C@@H]2N=C(c3ccc(Cl)cc3)c3c(sc(C)c3C)-n3c(C)nnc32)cc1)Cc1ccc(-n2c(C(=O)NCC(F)(F)F)nnc2-c2cc(C(C)C)c(O)cc2O)cc1 [Compound 102, (S)-4-(4-(((4-(3-(2-(4-(4-chlorophenyl)-2,3,9-trimethyl-6H-thieno[3,2-f][1,2,4]triazolo[4,3-a][1,4]diazepin-6-yl)acetamido)propoxy)benzyl)(ethyl)amino)methyl)phenyl)-5-(2,4-dihydroxy-5-isopropylphenyl)-N-(2,2,2-trifluoroethyl)-4H-1,2,4-triazole-3-carboxamide, trifluoroacetic acid] | < 100
15 | Cc1sc2c(c1C)C(c1ccc(Cl)cc1)=N[C@@H](CC(=O)N1CCC(CN3CCN(Cc4ccc(-n5c(O)nnc5-c5cc(C(C)C)c(O)cc5O)cc4)CC3)CC1)c1nnc(C)n1-2 [Compound 103, (S)-2-(4-(4-chlorophenyl)-2,3,9-trimethyl-6H-thieno[3,2-f][1,2,4]triazolo[4,3-a][1,4]diazepin-6-yl)-1-(4-((4-(4-(3-(2,4-dihydroxy-5-isopropylphenyl)-5-hydroxy-4H-1,2,4-triazol-4-yl)benzyl)piperazin-1-yl)methyl)piperidin-1-yl)ethan-1-one acetate] | < 100
16 | CCc1cc(-c2nnc(C(=O)NCCN(CC)CC)n2-c2ccc(CN3CCN(CC4CCN(C(=O)C[C@@H]5N=C(c6ccc(Cl)cc6)c6c(sc(C)c6C)-n6c(C)nnc65)CC4)CC3)cc2)c(O)cc1O [Compound 104, (S)-4-(4-((4-((1-(2-(4-(4-chlorophenyl)-2,3,9-trimethyl-6H-thieno[3,2-f][1,2,4]triazolo[4,3-a][1,4]diazepin-6-yl)acetyl)piperidin-4-yl)methyl)piperazin-1-yl)methyl)phenyl)-N-(2-(diethylamino)ethyl)-5-(5-ethyl-2,4-dihydroxyphenyl)-4H-1,2,4-triazole-3-carboxamide, trifluoroacetic acid] | < 100

Source: patent US12540143B2, “Methods and compositions for targeted protein degradation” (Ranok Therapeutics (Hangzhou) Co. Ltd., priority 2019, dated 2026)
